Source: publication PMC3177041 (Journal of Cachexia, Sarcopenia and Muscle, 2011)

Tested on: male Wistar rats
Test: chronic mild stress model, 1% sucrose consumption
Format: in vivo, rat
Details: stressed and control groups, 10 mg/kg once daily

Q: How did the “body mass gain in the 5 weeks of treatment vs vehicle-treated controls” value turn out when CN(C)CCCN1c2ccccc2CCc2ccccc21 [imipramine] was run?
A: gained less body mass
